For 27 compounds, EC50 results are on record in patent publication US12324802B2, “Modulators of cystic fibrosis transmembrane conductance regulator” (Vertex Pharmaceuticals Incorporated, priority 2020, dated 2025).

pEC50: −log10 of the molar value.

The target in this test is T1, CFTR (F508del/MF-HBE cells) (Homo sapiens, UniProt P13569, DEL508-508).
T1 construct: human bronchial epithelial (HBE) cells derived from CF subjects heterozygous for F508del and a minimal function CFTR mutation; endogenous in cells; host or cells: primary human bronchial epithelial cells from CF subjects (F508del/MF genotype)
T1 sequence (P13569 with tags, fused parts or gaps DEL508-508): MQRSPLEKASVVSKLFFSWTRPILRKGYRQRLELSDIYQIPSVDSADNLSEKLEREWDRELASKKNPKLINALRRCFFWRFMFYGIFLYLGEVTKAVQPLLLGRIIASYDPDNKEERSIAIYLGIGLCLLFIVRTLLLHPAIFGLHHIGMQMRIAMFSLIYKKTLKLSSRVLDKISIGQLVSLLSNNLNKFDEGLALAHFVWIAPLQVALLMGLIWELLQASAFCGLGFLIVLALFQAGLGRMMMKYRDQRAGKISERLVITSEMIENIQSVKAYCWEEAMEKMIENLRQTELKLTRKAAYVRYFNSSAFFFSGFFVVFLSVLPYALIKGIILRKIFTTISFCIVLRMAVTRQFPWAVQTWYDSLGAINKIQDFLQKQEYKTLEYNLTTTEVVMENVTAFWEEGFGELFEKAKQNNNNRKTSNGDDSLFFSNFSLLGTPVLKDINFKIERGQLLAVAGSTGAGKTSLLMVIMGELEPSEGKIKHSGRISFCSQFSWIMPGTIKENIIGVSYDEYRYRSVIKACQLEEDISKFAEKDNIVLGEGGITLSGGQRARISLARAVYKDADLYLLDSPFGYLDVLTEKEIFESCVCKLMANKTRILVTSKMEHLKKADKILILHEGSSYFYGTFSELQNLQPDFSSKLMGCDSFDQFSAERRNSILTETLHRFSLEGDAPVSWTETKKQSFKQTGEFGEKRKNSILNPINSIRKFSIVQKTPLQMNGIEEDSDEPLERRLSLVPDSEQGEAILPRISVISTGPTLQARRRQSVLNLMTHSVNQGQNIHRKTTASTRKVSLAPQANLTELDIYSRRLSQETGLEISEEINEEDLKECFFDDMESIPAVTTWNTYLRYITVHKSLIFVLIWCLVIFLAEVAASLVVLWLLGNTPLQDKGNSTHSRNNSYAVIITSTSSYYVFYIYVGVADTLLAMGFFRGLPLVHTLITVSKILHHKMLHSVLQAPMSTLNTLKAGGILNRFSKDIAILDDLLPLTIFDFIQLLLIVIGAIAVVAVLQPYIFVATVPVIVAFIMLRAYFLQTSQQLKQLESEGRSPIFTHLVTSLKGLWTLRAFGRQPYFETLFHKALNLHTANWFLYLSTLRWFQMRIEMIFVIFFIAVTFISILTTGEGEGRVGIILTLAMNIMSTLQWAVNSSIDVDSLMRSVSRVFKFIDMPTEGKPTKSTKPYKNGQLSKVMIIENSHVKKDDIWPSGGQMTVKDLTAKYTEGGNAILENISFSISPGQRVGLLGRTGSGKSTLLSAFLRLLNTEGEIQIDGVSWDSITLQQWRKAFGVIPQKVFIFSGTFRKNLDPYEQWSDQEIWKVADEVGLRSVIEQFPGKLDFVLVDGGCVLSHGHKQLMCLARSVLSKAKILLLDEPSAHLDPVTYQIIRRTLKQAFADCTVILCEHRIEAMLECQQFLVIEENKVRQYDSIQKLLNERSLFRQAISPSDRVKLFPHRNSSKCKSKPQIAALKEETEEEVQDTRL
Description: Ussing chamber assay of CFTR-mediated short-circuit currents (identification of potentiator compounds). The format is cell-based. Particulars: CFTR-mediated ISC in F508del/MF-HBE cells; incubated 18-24 hours at 37° C. with 10 μM (14S)-8-[3-(2-{dispiro[2.0.2.1]heptan-7-yl}ethoxy)-1H-pyrazol-1-yl]-...-2,2,4-trione, 20% human serum. How it is done:
Ussing Chamber Assay of CFTR-Mediated Short-Circuit Currents
Ussing chamber experiments were performed using human bronchial epithelial (HBE) cells derived from CF subjects heterozygous for F508del and a minimal function CFTR mutation (F508del/MF-HBE) and cultured as previously described (Neuberger T, Burton B, Clark H, Van Goor F Methods Mol Biol 2011:741:39-54). After four days the apical media was removed, and the cells were grown at an air liquid interface for >14 days prior to use.
To isolate the CFTR-mediated short-circuit (ISC) current, F508del/MF-HBE grown on Costar® Snapwell™ cell culture inserts were mounted in an Ussing chamber and the transepithelial ISC was measured under voltage-clamp recording conditions (Vhold=0 mV) at 37° C. The basolateral solution contained (in mM) 145 NaCl, 0.83 K2HPO4, 3.3 KH2PO4, 1.2 MgCl2, 1.2 CaCl2), 10 Glucose, 10 HEPES (pH adjusted to 7.4 with NaOH) and the apical solution contained (in mM) 145 NaGluconate, 1.2 MgCl2, 1.2 CaCl2), 10 glucose, 10 HEPES (pH adjusted to 7.4 with NaOH) and 30 μM amiloride to block the epithelial sodium channel. Forskolin (20 μM) was added to the apical surface to activate CFTR, followed by apical addition of a CFTR inhibitor cocktail consisting of BPO, GlyH-101 and CFTR inhibitor 172 (each at 20 μM final assay concentration) to specifically isolate CFTR currents. The CFTR-mediated ISC (μA/cm^2) for each condition was determined from the peak forskolin response to the steady-state current following inhibition.
Identification of Potentiator Compounds
The activity of the CFTR potentiator compounds on the CFTR-mediated ISC was determined in Ussing chamber studies as described above. The F508del/MF-HBE cell cultures were incubated with the potentiator compounds at a range of concentrations in combination with 10 μM (14S)-8-[3-(2-{dispiro[2.0.2.1]heptan-7-yl}ethoxy)-1H-pyrazol-1-yl]-12,12-dimethyl-2λ^6-thia-3,9,11,18,23-pentaazatetracyclo [17.3.1.111,14.05,10]tetracosa-1(22),5,7,9,19(23),20-hexaene-2,2,4-trione for 18-24 hours at 37° C. and in the presence of 20% human serum. The concentration of potentiator compounds and (14S)-8-[3-(2-{dispiro[2.0.2.1]heptan-7-yl}ethoxy)-1H-pyrazol-1-yl]-12,12-dimethyl-2λ^6-thia-3,9,11,18,23-pentaazatetracyclo [17.3.1.111,14.05,10]tetracosa-1(22),5,7,9,19(23),20-hexaene-2,2,4-trione used during the 18-24 hours incubations was kept constant throughout the Ussing chamber measurement of the CFTR-mediated ISC to ensure compounds were present throughout the entire experiment. The efficacy and potency of the putative F508del potentiators was compared to that of the known Vertex potentiator, ivacaftor (N-[2,4-bis(1,1-dimethylethyl)-5-hydroxyphenyl]-1,4-dihydro-4-oxoquinoline-3-carboxamide).
Turning to `Nc1cc(C2CCCCC2)c2nc1-c1nnc(o1)C(O)(C(F)(F)F)CCCCC[C@@H]1CCCN21` (mixture of isomers) [Compound 129, (12R)-20-amino-18-cyclohexyl-6-(trifluoromethyl)-22-oxa-3,4,16,21-tetraazatetracyclo[15.3.1.12,5.012,16]docosa-1(21),2,4,17,19-pentaen-6-ol], the pEC50 was above 6.30.

With `CN1CCCCCCC(C)(O)C2=NN=C(O2)c2nc1c(C(F)(F)F)cc2N` (single isomer, unassigned) [Compound 61, 17-amino-6,13-dimethyl-15-(trifluoromethyl)-19-oxa-3,4,13,18-tetrazatricyclo[12.3.1.12,5]nonadeca-1(17),2,4,14(18),15-pentaen-6-ol], the negative-log EC50 (pEC50) was above 6.30.

Turning to `CN1CCCCCCC(O)(C2CC2)C2=NN=C(O2)c2nc1c(C(F)(F)F)cc2N` (single isomer, unassigned) [Compound 79, 17-amino-6-cyclopropyl-13-methyl-15-(trifluoromethyl)-19-oxa-3,4,13,18-tetrazatricyclo[12.3.1.12,5]nonadeca-1(18),2,4,14,16-pentaen-6-ol], the pEC50 was below 6.00.

Regarding `Nc1cc(C(F)(F)F)c2nc1-c1nnc(o1)C(O)(CO)CCCCC[C@@H]1CCCN21` (single isomer, unassigned) [Compound 100], the pEC50 was 6.00 to 6.30.

Consider `Nc1cc(C(F)(F)F)c2nc1-c1nnc(o1)[C@@](O)(C(F)(F)F)CCCCCC(Cc1ccccc1)N2` (single isomer, unassigned) [Compound 180], for which the pEC50 was above 6.30.

With `Nc1cc(C(F)(F)F)c2nc1-c1nnc(o1)C(O)(C1CCOCC1)CCCCC[C@@H]1CCCN21` (single isomer, unassigned) [Compound 89], the pEC50 is below 6.00.

Take `Nc1ccc2nc1-c1nnc(o1)C(O)(C(F)(F)F)CCCCC[C@@H]1CCCN21` (single isomer, unassigned) [Compound 72]: the pEC50 was below 6.00.

In the case of `Nc1cc(C(F)(F)F)c2nc1-c1nnc(o1)C(O)(C(F)(F)F)c1cccc(n1)CCC[C@@H]1CCCN21` (single isomer, unassigned) [Compound 82], the pEC50 was above 6.30.

As to `Nc1cc(C(F)(F)F)c2nc1-c1nnc(o1)[C@@](O)(C(F)(F)F)CCCCCC(c1ccccn1)N2` (stereo partly drawn) [Compound 166, (6R)-17-amino-12-(2-pyridyl)-6,15-bis(trifluoromethyl)-19-oxa-3,4,13,18-tetrazatricyclo[12.3.1.12,5]nonadeca-1(18),2,4,14,16-pentaen-6-ol], the pEC50 was above 6.30.

For `Nc1cc(C(F)(F)F)c2nc1-c1nnc(o1)[C@@](O)(C(F)(F)F)CCCCCC1(CCOC1)N2` (single isomer, unassigned) [Compound 208], the pEC50 is above 6.30.

On to `Nc1cc(C(F)(F)F)c2nc1-c1nnc(o1)[C@@](O)(C(F)(F)F)CCCCCC(c1ncco1)N2` (single isomer, unassigned) [Compound 184], for which the pEC50 was above 6.30.

`Nc1cc(C(F)(F)F)c2nc1-c1nnc(o1)[C@@](O)(C(F)(F)F)CCCCCC(C(=O)O)N2` (single isomer, unassigned) [Compound 155]: the pEC50 was below 6.00.

Turning to `Nc1cc(C(F)(F)F)c2nc1-c1nnc(o1)C(O)(C(F)(F)F)CCCCCC(=O)N2` (single isomer, unassigned) [Compound 108, 17-amino-6-hydroxy-6,15-bis(trifluoromethyl)-19-oxa-3,4,13,18-tetrazatricyclo[12.3.1.12,5]nonadeca-1(18),2,4,14,16-pentaen-12-one], the negative logarithm of the EC50 (pEC50) was above 6.30.

Consider `Nc1cc(C(F)(F)F)c2nc1-c1nnc(o1)[C@@](O)(C(F)(F)F)CCCCCC1(CCCCC1)N2` [Compound 193, (6R)-17-amino-6,15-bis(trifluoromethyl)spiro[19-oxa-3,4,13,18-tetrazatricyclo[12.3.1.12,5]nonadeca-1(18),2,4,14,16-pentaene-12,1′-cyclohexane]-6-ol], for which the pEC50 is above 6.30.

As for `CC1(CO)CCCCC[C@](O)(C(F)(F)F)C2=NN=C(O2)c2nc(c(C(F)(F)F)cc2N)N1` (single isomer, unassigned) [Compound 174], the pEC50 is above 6.30.

Regarding `Nc1cc(C(F)(F)F)c2nc1-c1nnc(o1)C(O)(C(F)(F)F)CCCCCCN2CCO` (single isomer, unassigned) [Compound 41, 17-amino-13-(2-hydroxyethyl)-6,15-bis(trifluoromethyl)-19-oxa-3,4,13,18-tetrazatricyclo[12.3.1.12,5]nonadeca-1(18),2,4,14,16-pentaen-6-ol], the negative logarithm of the EC50 (pEC50) is above 6.30.

Regarding `Nc1cc(C(F)(F)F)c2nc1-c1nnc(o1)[C@@](O)(C(F)(F)F)CCCCCC(c1ccc(F)cc1)N2` (single isomer, unassigned) [Compound 182], the pEC50 is above 6.30.

With `Nc1cc(C(F)(F)F)c2nc1-c1nnc(o1)C(O)(C(F)(F)F)c1cc(ccn1)CCC[C@@H]1CCCN21` (single isomer, unassigned) [Compound 85], the pEC50 was below 6.00.

Take `Nc1cc(C(F)(F)F)c2nc1-c1nnc(o1)C(O)(C(F)(F)F)c1cc(ccn1)CCC[C@@H]1CCCN21` (single isomer, unassigned) [Compound 84]: the pEC50 is above 6.30.

Regarding `Nc1cc(C(F)(F)F)c2nc1-c1nnc(o1)C(O)(C(F)(F)F)CCCC(=O)N1CCN2CC1` (single isomer, unassigned) [Compound 37, 5-amino-11-hydroxy-3,11-bis(trifluoromethyl)-21-oxa-1,8,9,16,22-pentaazatetracyclo[14.2.2.12,6.17,10]docosa-2,4,6(22),7,9-pentaen-15-one], the pEC50 is above 6.30.

As to `Nc1cc(C(F)(F)F)c2nc1-c1nnc(o1)C(O)(C(F)(F)F)CCCOC[C@@H]1CCCN21` (stereo partly drawn) [Compound 147, (12S)-20-amino-6,18-bis(trifluoromethyl)-10,22-dioxa-3,4,16,21-tetraazatetracyclo[15.3.1.12,5.012,16]docosa-1(21),2,4,17,19-pentaen-6-ol], the pEC50 is above 6.30.

For the compound `Nc1cc(C(F)(F)F)c2nc1-c1nnc(o1)C(O)(C(F)(F)F)c1ccc(F)c(c1)CCC[C@@H]1CCCN21` (single isomer, unassigned) [Compound 130], the pEC50 is below 6.00.

Consider `Nc1cc(C(F)(F)F)c2nc1-c1nnc(o1)C(O)(C(F)(F)F)CCCCCCC1CCCN21` (single isomer, unassigned) [Compound 23, 21-amino-6,19-bis(trifluoromethyl)-23-oxa-3,4,17,22-tetraazatetracyclo[16.3.1.12,5.013,17]tricosa-1(22),2,4,18,20-pentaen-6-ol], for which the pEC50 was above 6.30.

As for `Nc1cc(S(=O)(=O)c2ccc(OC(F)(F)F)cc2)c2nc1-c1nnc(o1)C(O)(C(F)(F)F)CCCCC[C@@H]1CCCN21` (mixture of isomers) [Compound 143, (12R)-20-amino-18-[4-(trifluoromethoxy)benzenesulfonyl]-6-(trifluoromethyl)-22-oxa-3,4,16,21-tetraazatetracyclo[15.3.1.12,5.012,16]docosa-1(20),2,4,17(21),18-pentaen-6-ol], the pEC50 was above 6.30.

With `CC1(C)CCC(O)CC[C@](O)(C(F)(F)F)C2=NN=C(O2)c2nc(c(C(F)(F)F)cc2N)N1` (single isomer, unassigned) [Compound 190], the negative-log EC50 (pEC50) is above 6.30.

On to `Nc1cc(-c2cn[nH]c2)c2nc1-c1nnc(o1)C(O)(C(F)(F)F)CCCCC[C@@H]1CCCN21` (mixture of isomers) [Compound 128, (12R)-20-amino-18-(1H-pyrazol-4-yl)-6-(trifluoromethyl)-22-oxa-3,4,16,21-tetraazatetracyclo[15.3.1.12,5.012,16]docosa-1(21),2,4,17,19-pentaen-6-ol], for which the pEC50 was above 6.30.

In the case of `CN(C)C(=O)C1CCCCCC(O)(C(F)(F)F)C2=NN=C(O2)c2nc(c(C(F)(F)F)cc2N)N1` (single isomer, unassigned) [Compound 149, 17-amino-6-hydroxy-N,N-dimethyl-6,15-bis(trifluoromethyl)-19-oxa-3,4,13,18-tetrazatricyclo[12.3.1.12,5]nonadeca-1(18),2,4,14,16-pentaene-12-carboxamide], the pEC50 was below 6.00.

As usually defined, the pEC50 is the negative decadic logarithm of the EC50, by convention in mol/L.
